Source: ChEMBL document CHEMBL3864159, “Variation of the aryl substituent on the piperazine ring within the 4-(piperazin-1-yl)-2,6-di(pyrrolidin-1-yl)pyrimidine scaffold unveils potent, non-competitive inhibitors of the inflammatory caspases” (Bioorg Med Chem Lett, 2016)
Active and inactive are the calls of the source. The rule behind the calls is not given here.

What was measured:
[1] = molecular target: Cathepsin B (Homo sapiens) (UniProt P07858); assay: Inhibition of human recombinant cathepsin-B at 5 uM preincubated for 10 mins followed by Z-FR-AMC substrate addition by fluorescence assay
[2] = organism: Homo sapiens; assay: Selectivity ratio of Ki for human recombinant DTT-activated caspase-5 expressed in Escherichia coli to Ki for human recombinant N-terminal His-tagged DTT-activated caspase-4 expressed in Escherichia coli
[3] = organism: Homo sapiens; assay: Selectivity ratio of Ki for human recombinant N-terminal His-tagged DTT-activated caspase-1 expressed in Escherichia coli to Ki for human recombinant N-terminal His-tagged DTT-activated caspase-4 expressed in Escherichia coli
[4] = molecular target: T1, Papain (Carica papaya) (UniProt P00784); assay: Inhibition of papaya papain at 5 uM preincubated for 10 mins followed by Suc-LLVY-AMC substrate addition by fluorescence assay relative to control
T1 sequence (whole entry): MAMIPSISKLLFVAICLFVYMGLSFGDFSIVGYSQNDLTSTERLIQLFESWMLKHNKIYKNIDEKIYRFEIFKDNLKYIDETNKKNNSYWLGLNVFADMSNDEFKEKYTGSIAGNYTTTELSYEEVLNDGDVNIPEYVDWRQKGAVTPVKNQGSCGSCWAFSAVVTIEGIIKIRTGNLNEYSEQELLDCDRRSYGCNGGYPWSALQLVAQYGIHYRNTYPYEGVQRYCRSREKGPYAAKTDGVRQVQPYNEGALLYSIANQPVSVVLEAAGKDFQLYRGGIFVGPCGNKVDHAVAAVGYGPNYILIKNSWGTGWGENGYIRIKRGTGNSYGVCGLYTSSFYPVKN

[5] = molecular target: T2, Caspase-1 (Homo sapiens) (UniProt P29466); assay: Non-competitive inhibition of human recombinant N-terminal His-tagged DTT-activated caspase-1 expressed in Escherichia coli using 5 to 50 uM Ac-WEHD-AMC as substrate preincubated for 30 mins followed by substrate addition by Michaelis-Menten plot analysis
T2 sequence (whole entry): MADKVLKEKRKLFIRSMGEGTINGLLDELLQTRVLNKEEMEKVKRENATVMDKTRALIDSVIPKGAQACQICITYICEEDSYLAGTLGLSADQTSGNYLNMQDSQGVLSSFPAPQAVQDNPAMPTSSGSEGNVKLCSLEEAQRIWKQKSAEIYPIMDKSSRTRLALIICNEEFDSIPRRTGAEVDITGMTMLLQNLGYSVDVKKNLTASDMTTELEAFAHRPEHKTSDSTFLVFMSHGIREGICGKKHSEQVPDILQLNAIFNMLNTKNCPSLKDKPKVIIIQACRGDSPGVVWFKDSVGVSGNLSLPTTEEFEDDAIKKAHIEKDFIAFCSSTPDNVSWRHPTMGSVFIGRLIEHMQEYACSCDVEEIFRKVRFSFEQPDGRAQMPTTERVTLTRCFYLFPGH

[6] = molecular target: T3, Calpain-1 catalytic subunit (Homo sapiens) (UniProt P07384); assay: Inhibition of full-length human calpain-1 at 5 uM preincubated for 10 mins followed by Suc-LLVY-AMC substrate addition by fluorescence assay relative to control
T3 sequence (whole entry): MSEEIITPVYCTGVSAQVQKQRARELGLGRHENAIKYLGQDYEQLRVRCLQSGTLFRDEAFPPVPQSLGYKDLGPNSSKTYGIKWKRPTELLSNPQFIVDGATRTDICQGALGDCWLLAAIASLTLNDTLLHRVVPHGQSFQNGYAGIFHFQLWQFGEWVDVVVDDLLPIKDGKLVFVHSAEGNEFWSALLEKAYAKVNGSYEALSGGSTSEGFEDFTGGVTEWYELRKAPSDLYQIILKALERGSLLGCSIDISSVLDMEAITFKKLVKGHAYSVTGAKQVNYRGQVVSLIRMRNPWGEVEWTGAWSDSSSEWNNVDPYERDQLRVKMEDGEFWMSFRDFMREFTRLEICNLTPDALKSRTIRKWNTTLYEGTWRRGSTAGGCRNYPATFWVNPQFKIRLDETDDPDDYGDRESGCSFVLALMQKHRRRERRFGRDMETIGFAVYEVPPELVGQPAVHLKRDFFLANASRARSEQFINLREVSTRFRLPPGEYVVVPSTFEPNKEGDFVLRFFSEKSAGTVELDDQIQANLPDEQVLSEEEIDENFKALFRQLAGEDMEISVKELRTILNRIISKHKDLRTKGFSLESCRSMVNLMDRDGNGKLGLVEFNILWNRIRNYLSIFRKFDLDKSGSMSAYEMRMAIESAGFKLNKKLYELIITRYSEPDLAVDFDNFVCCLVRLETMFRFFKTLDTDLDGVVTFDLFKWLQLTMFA

[7] = molecular target: T4, Cathepsin K (Homo sapiens) (UniProt P43235); assay: Inhibition of human recombinant cathepsin-K at 5 uM preincubated for 10 mins followed by Z-FR-AMC substrate addition by fluorescence assay
T4 sequence (whole entry): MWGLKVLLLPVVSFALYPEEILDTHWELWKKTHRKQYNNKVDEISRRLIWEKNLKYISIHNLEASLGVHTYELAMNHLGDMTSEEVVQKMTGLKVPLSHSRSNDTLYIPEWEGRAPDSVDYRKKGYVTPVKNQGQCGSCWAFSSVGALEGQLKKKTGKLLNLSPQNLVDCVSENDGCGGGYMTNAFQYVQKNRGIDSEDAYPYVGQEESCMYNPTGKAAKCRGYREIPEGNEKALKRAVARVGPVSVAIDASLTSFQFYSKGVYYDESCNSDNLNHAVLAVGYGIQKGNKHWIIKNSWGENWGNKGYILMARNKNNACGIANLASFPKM

[8] = organism: Homo sapiens; assay: Selectivity ratio of Ki for human recombinant N-terminal His-tagged DTT-activated caspase-4 expressed in Escherichia coli to Ki for human recombinant DTT-activated caspase-5 expressed in Escherichia coli
[9] = organism: Homo sapiens; assay: Selectivity ratio of Ki for human recombinant N-terminal His-tagged DTT-activated caspase-1 expressed in Escherichia coli to Ki for human recombinant DTT-activated caspase-5 expressed in Escherichia coli
[10] = molecular target: T4, Cathepsin K (Homo sapiens); assay: Inhibition of human recombinant cathepsin-K assessed as residual activity at 5 uM preincubated for 10 mins followed by Z-FR-AMC substrate addition by fluorescence assay relative to control

Row | Structure (SMILES) | inhibition [1] | Ratio Ki [2] | Ratio Ki [3] | inhibition [4] | inhibition [5] | inhibition [6] | inhibition [7] | Ratio Ki [8] | Ratio Ki [9] | Activity [10] [%]
1 | c1ccc(CCN2CCN(c3cc(N4CCCC4)nc(N4CCCC4)n3)CC2)cc1 | Active | 2 | 2 | Active | Active | Active | Active | – | – | –
2 | c1cc(CN2CCN(c3cc(N4CCCC4)nc(N4CCCC4)n3)CC2)ccn1 | – | – | – | – | – | – | – | 10 | 10 | –
3 | c1cncc(CN2CCN(c3cc(N4CCCC4)nc(N4CCCC4)n3)CC2)c1 | Active | – | – | Active | – | Active | Active | 10 | 10 | –
4 | O=[N+]([O-])c1ccc(CN2CCN(c3cc(N4CCCC4)nc(N4CCCC4)n3)CC2)cc1 | – | – | – | – | – | – | – | 10 | 10 | –
5 | COc1cccc(CN2CCN(c3cc(N4CCCC4)nc(N4CCCC4)n3)CC2)c1 | Active | – | – | Active | – | Active | – | – | – | 78
